Source: patent US5688807A, “Method for treating 5HT2B receptor related conditions” (Eli Lilly and Company, priority 1995, dated 1997)
Structures can show the parent of a compound that is named as a salt.

target: 5-HT2B receptor (rat stomach fundus) (Rattus norvegicus, UniProt P30994); experiment: not given; settings: not given
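Wherever 5-HT2B (Fundus) -log KB is given: isometric contraction of isolated male Wistar rat stomach fundus strips, serotonin concentration-response curves after antagonist incubation, KB from dose ratio of agonist potency versus control curve.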
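Wherever Kb is given: isometric contraction of isolated male Wistar rat stomach fundus strips, serotonin concentration-response curves after antagonist incubation, KB from dose ratio of agonist potency versus control curve.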

Sequence of 5-HT2B receptor (rat stomach fundus) (P30994 whole entry): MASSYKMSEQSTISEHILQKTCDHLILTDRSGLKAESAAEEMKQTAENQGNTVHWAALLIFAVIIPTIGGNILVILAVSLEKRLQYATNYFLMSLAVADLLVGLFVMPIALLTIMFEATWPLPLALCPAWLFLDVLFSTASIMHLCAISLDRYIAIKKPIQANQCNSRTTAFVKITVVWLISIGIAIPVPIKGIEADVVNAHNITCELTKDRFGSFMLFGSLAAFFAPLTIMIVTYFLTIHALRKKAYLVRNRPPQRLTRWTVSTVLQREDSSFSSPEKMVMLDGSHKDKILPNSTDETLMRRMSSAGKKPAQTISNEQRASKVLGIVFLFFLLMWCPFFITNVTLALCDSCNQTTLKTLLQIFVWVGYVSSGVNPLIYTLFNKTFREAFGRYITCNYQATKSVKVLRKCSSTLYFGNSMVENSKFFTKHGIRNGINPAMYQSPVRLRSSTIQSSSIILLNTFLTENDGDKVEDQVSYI

| SMILES | Kb [nM] |
| --- | --- |
| COc1ccc(CC2NCCc3c2[nH]c2c(C)c(C)ccc32)cc1OC (stereo not shown) [Example 19, 7,8-dimethyl-1,2,3,4-tetrahydro-1-[(3,4-dimethoxyphenyl)methyl]-9H-pyrido[3,4b]indole hydrochloride] | 0.0759 |
| COc1ccc(CC2NCCc3c2[nH]c2c(Br)c(C)ccc32)cc1OC (stereo not shown) [Example 7, 7-methyl-8-bromo-1-[(3,4-dimethoxyphenyl)-methyl]-1,2,3,4-tetrahydro-9H-pyrido[3,4-b]indole hydrochloride] | 0.955 |

same assay, conditions: rat stomach fundus; vs serotonin; ± standard error; read-out: 5-HT2B (Fundus) -log KB (converted)

| SMILES | Kb [nM] |
| --- | --- |
| COc1ccc(CC2c3[nH]c4ccc(C)cc4c3CCN2C)c(Cl)c1OC (stereo not shown) [Example 44, 2,6-dimethyl-1-[(2-chloro-3,4-dimethoxyphenyl)methyl]-1,2,3,4-tetrahydro-9H-pyrido[3,4-b]indole hydrochloride] | 3.98 |
| COc1ccc(CC2NCCc3c2[nH]c2c(F)cc(F)cc32)cc1OC (stereo not shown) [Example 6, 6,8-difluoro-1-[(3,4-dimethoxyphenyl)-methyl]-1,2,3,4-tetrahydro-9H-pyrido[3,4-b]indole] | 0.251 |
| COc1ccc(CC2NCCc3c2[nH]c2ccc(Br)cc32)cc1OC (stereo not shown) [Example 18, 6-bromo-1,2,3,4-tetrahydro-1-[(3,4-dimethoxyphenyl)methyl]-9H-pyrido[3,4b]indole] | 1.58 |
| Brc1cccc2c3c([nH]c12)C(Cc1cccc2ccccc12)NCC3 (racemic) [Example 52, (±) 8-bromo-1-(1-naphthalenylmethyl)-1,2,3,4-tetrahydro-9H-pyrido [3,4-b]indole hydrochloride] | ~0.794 |
| c1ccc2c(CC3NCCc4c3[nH]c3ccc(C5CCCCC5)cc43)cccc2c1 (racemic) [Example 57, (+/-) 6-cyclohexyl-1-(1-naphthalenylmethyl)-1,2,3,4-tetrahydro-9H-pyrido [3,4-b] indole hydrochloride] | > 10 |
| COc1cc(CC2NCCc3c2[nH]c2ccc(C)cc32)cc(I)c1OC (stereo not shown) [Example 29, 6-methyl-1-[(3-iodo-4,5-dimethoxy-phenyl)-methyl]-1,2,3,4-tetrahydro-9H-pyrido[3,4-b]indole] | 7.59 |
| Cc1ccc2c(c1)c1c(n2C)C(Cc2cccc3ccccc23)NCC1 (racemic) [Example 63, (+/-) 6,9-dimethyl-1,2,3,4-tetrahydro-1-(1-naphthalenylmethyl)-9H-pyrido [3,4-b] indole hydrochloride] | 0.813 |
| Cc1ccc2[nH]c3c(c2c1)CCNC3CC1CCCCC1 (stereo not shown) [Example 39, 6-methyl-1-(cyclohexylmethyl)-1,2,3,4-tetrahydro-9H-pyrido[3,4-b]indole hydrochloride] | 4.79 |
| COc1ccc(CC2NCCc3c2[nH]c2ccc(C(C)(C)C)cc32)cc1OC (stereo not shown) [Example 8, 6-(1,1-dimethylethyl)-1-[(3,4-dimethoxyphenyl)methyl]1,2,3,4-tetrahydro-1-9H-pyrido-[3,4b]indole hydrochloride] | 3.55 |
| COc1ccc(CC2NCCc3c2[nH]c2c(C)cc(C)cc32)cc1OC (stereo not shown) [Example 14, 6,8-dimethyl-1,2,3,4-tetrahydro-1-[(3,4-dimethoxyphenyl)methyl]-9H-pyrido[3,4b]indole hydrochloride] | 0.245 |
| COc1cc(CC2NCCc3c2[nH]c2ccc(C)cc32)cc([N+](=O)[O-])c1OC (stereo not shown) [Example 28, 6-methyl-1-[(3,4-dimethoxy-5-nitrophenyl)-methyl]-1,2,3,4-tetrahydro-9H-pyrido[3,4-b]indole hydrochloride] | 2.82 |
| COc1ccc(C(C)C2NCCc3c2[nH]c2ccc(C)cc32)cc1OC (racemic) [Example 40] | 0.178 |
| COc1ccc(CC2NCCc3c2[nH]c2cc(C)cc(C)c32)cc1OC (stereo not shown) [Example 15, 5,7-dimethyl-1,2,3,4-tetrahydro-1-[(3,4-dimethoxyphenyl)methyl]-9H-pyrido[3,4b]indole hydrochloride] | 0.457 |
| c1ccc2c(CC3NCCc4c3[nH]c3c4ccc4ccccc43)cccc2c1 (racemic) [Example 60, (+/-) 7,8,9,10-tetrahydro-10-(1-naphthalenylmethyl)-11H-benzo [g] pyrido [3,4-b] indole (Z)-2-butenedioate] | 1.2 |
| CCC(c1ccc(OC)c(OC)c1)C1NCCc2c1[nH]c1ccc(C)cc21 (racemic) [Example 43, (±) 6-methyl-1-[(3,4-dimethoxyphenyl)-1-propyl]-1,2,3,4-tetrahydro-9H-pyrido[3,4-b]indole (Z)-2-butenedioate] | 0.363 |
| CCc1ccc2[nH]c3c(c2c1)CCNC3C(C)c1ccc(OC)c(OC)c1 (racemic) [Example 42, (±) 6-ethyl-1-[(3,4-dimethoxyphenyl)-1-ethyl]-1,2,3,4-tetrahydro-9H-pyrido[3,4-b]indole (Z)-2-butenedioate] | 0.275 |
| Cc1ccc2[nH]c3c(c2c1F)CCNC3Cc1cccc2ccccc12 (racemic) [Example 59, (+/-) 5-fluoro-6-methyl-1-(1-naphthalenylmethyl)-1,2,3,4-tetrahydro-9H-pyrido [3,4-b] indole (Z)-2-butenedioate] | 0.204 |
| COc1ccc(CC2NCCc3c2[nH]c2c(C)ccc(C)c32)cc1OC (stereo not shown) [Example 12, 5,8-dimethyl-1,2,3,4-tetrahydro-1-[(3,4-dimethoxyphenyl)methyl]-9H-pyrido[3,4b]indole hydrochloride] | 0.513 |

same assay, conditions: read-out: 5-HT2B (Fundus) -log KB (converted)

| SMILES | Kb [nM] |
| --- | --- |
| Cc1ccc2[nH]c3c(c2c1)CCNC3Cc1ccc(C)c(C)c1 (stereo not shown) [Example 35, 6-methyl-1-[(3,4-dimethylphenyl)methyl]-1,2,3,4-tetrahydro-9H-pyrido[3,4-b]indole hydrochloride] | ~0.871 |

target: rat 5-HT2B receptor (Rattus norvegicus, UniProt P30994); experiment: biochemical; type: binding; settings: Ki Rat 5-HT2B, [3H]Serotonin; 5-HT2B cells; AVG;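 further: displacement of [3H]5-HT from membranes of suspension cells carrying cloned rat 5-HT2B receptor, incubated 15 min at 37 °C or 2 h at 0 °C, filter-bound radioactivity counted by scintillation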
Sequence (P30994 whole entry): as above

| SMILES | Ki [nM] |
| --- | --- |
| CN1CC(C(=O)NCc2cccnc2)CC2c3cccc4[nH]cc(c34)CC21 (stereo not shown) | 35.1 |
| NCCc1c[nH]c2c(F)cccc12 | 62.4 |
| CC(N)Cc1c[nH]c2ccc(F)cc12 (stereo not shown) | 6.52 |
| Fc1cccc2c3c([nH]c12)CNCC3 | 25.6 |
| NCCc1c[nH]c2cc(O)c(O)cc12 | 41.6 |
| COc1ccc2cccc(N3CCNCC3)c2c1 | 3.58 |
| CCN(C)CCc1c[nH]c2ccc(OCc3ccccc3)cc12 | 84.5 |
| Cc1ccc2c(CCN)c[nH]c2c1 | 102 |
| NCCc1c[nH]c2ccc(OCc3ccccc3)cc12 | 30.2 |
| NCCc1c[nH]c2c(F)ccc(F)c12 | 337 |
| CN1CC(C(=O)NCc2cccnc2)CC2c3cccc4c3c(cn4C)CC21 (stereo not shown) | 15.5 |
| COC(=O)c1ccc2[nH]cc(CCN)c2c1 | 49.3 |
| CCC(CO)NC(=O)C1C=C2c3cccc4c3c(cn4C)CC2N(C)C1 (stereo not shown) | 6.28 |
| COc1ccc2[nH]c3c(c2c1)CCNC3 | 405 |
| CCCNCCc1c[nH]c2ccc(Br)cc12 | 131 |
| NCCc1c[nH]c2c(O)cc(O)cc12 | 4570 |
| CC(N)Cc1c[nH]c2cc(F)ccc12 (stereo not shown) | 49.9 |
| Clc1ccc2[nH]c3c(c2c1)CCNC3 [drawing 166] | 70.7 |
| CN(C)CCc1c[nH]c2ccc(OCc3ccccc3)cc12 | 38.5 |
| Brc1ccc2[nH]c3c(c2c1)CCNC3 [drawing 170] | 62.1 |
| NCCc1c[nH]c2c(Br)cccc12 | 32 |
| CN1CC(C(=O)NCCc2ccccn2)CC2c3cccc4c3c(cn4C)CC21 (stereo not shown) | 24.5 |
| CCCN(CCC)CCc1c[nH]c2ccc(O)cc12 | 61 |
| Cc1cc(Br)c2[nH]cc(CCN)c2c1 | 37.6 |
| NCCc1c[nH]c2c(F)cc(F)cc12 | 15.4 |
| CCCN(CCC)CCc1c[nH]c2ccc(OC)cc12 | 169 |
| Cc1c(Br)ccc2c(CCN)c[nH]c12 | 20.8 |
| c1ccc2c3c([nH]c2c1)CNCC3 | 379 |
| NCCc1c[nH]c2cc(F)ccc12 | 40.6 |

same assay, conditions: [3H]Serotonin; 5-HT2B cells; AVG; read-out: Ki Rat 5-HT2B

| SMILES | Ki [nM] |
| --- | --- |
| CCCC(=O)c1cccc2c1CC(NC)CC2 (stereo not shown) | 1500 |
| Cc1ccc2[nH]c3c(c2c1F)CCNC3Cc1cccc2ccccc12 (stereo not shown) | 4.38 |
| COc1ccc(CC2NCCc3c2[nH]c2c(Br)c(C)ccc32)c(OC)c1OC (stereo not shown) | 8.77 |
| CC(C)c1ccc2[nH]c3c(c2c1)CCNC3C(C)c1cccc2ccccc12 (stereo not shown) | 14.2 |
| CCCCC(=O)c1cccc2c1CC(NC)CC2 (stereo not shown) | 5150 |
| COc1ccc(CC2NCCc3c2[nH]c2ccc(-c4ccccc4)cc32)cc1OC (stereo not shown) | 229 |
| COc1ccc(C(C)(C)C2NCCc3c2[nH]c2ccccc32)cc1OC (stereo not shown) | 220 |
| CCCC(=O)c1cccc2c1CC(N(C)C)CC2 (stereo not shown) | 862 |
| CN(C)C1CCc2cccc(C(=O)c3ccccc3)c2C1 (stereo not shown) | 1750 |
| CC(C)(C)c1ccc2[nH]c3c(c2c1)CCNC3Cc1cccc2ccccc12 (stereo not shown) | 44.9 |
| COc1ccc(CC2NCCc3c2[nH]c2ccc(C(C)(C)C)cc32)cc1OC (stereo not shown) [drawing 148] | 39.7 |
| CCCCC(=O)c1cccc2c1CC(N(C)C)CC2 (stereo not shown) | 936 |
| Cc1ccc2c3c([nH]c2c1)CNCC3 | 78.5 |
| CCCc1ccc2[nH]c3c(c2c1)CCNC3Cc1ccc(OC)c(OC)c1 (stereo not shown) | 28.4 |
| CCCN(CCC)C1CCc2cccc(O)c2C1 (stereo not shown) | 4120 |
| NCCc1c[nH]c2c1ccc1ccccc12 | 155 |

| SMILES | Ki [nM] |
| --- | --- |
| COc1ccc(CC2NCCc3c2[nH]c2ccc(C4CCCCC4)cc32)cc1OC (stereo not shown) [drawing 149] | 1460 |
| CC(O)C(C)OC(=O)C1CC2c3cccc4c3c(cn4C(C)C)CC2N(C)C1 (stereo not shown) | 6.87 |
| Cc1c(Br)ccc2c3c([nH]c12)CNCC3 | 32.4 |
| CC(C)n1cc(CCN)c2cc(Br)ccc21 | 475 |
| Cc1ccc2[nH]cc(CCN)c2c1 | 32.8 |
| c1ccc(COc2cccc3c4c([nH]c23)CNCC4)cc1 | 5650 |
| Fc1ccc2[nH]c3c(c2c1)CCNC3 | 322 |
| Cc1[nH]c2ccc(O)cc2c1CCN | 284 |
| COc1cc(CC2NCCc3c2[nH]c2ccc(C)cc32)cc(I)c1OC (stereo not shown) [drawing 153] | 4.82 |
| CN(C)C1CCc2cccc(C(=O)c3ccccc3F)c2C1 (stereo not shown) | 3020 |
| Cc1cccc2c3c([nH]c12)CNCC3 | 60.1 |
| CC(O)C(C)OC(=O)C1CC2c3cccc4[nH]cc(c34)CC2N(C)C1 (stereo not shown) | 12.2 |
| NCCc1c[nH]c2ccc(F)cc12 | 5.65 |
| NCCc1c[nH]c2ccccc12 | 113 |
| NCCc1c[nH]c2ccc(Cl)cc12 | 6.21 |

same assay, conditions: read-out: Ki Rat 5-HT2B; [3H]Serotonin; 5-HT2B cells; AVG

| SMILES | Ki [nM] |
| --- | --- |
| NCc1c[nH]c2ccc(Br)cc12 | 39.3 |
